Read-outs that look alike come from different tables or passages of the source.
Key:
[1] = tested on: Plasmodium falciparum Dd2 asexual blood stage parasites; test: microbe, parasite or virus in culture; design: species or system Plasmodium falciparum Dd2 in human erythrocytes; single determination (one 11-point concentration-response curve); details: Plasmodium falciparum, DD2, Erythrocyte, 72 h
[2] = in vitro; details: human; for viability at 48 h / viability at 48 h, 1 µM / viability at 66 h / viability at 48 h, 3 µM: HepG2-A16-CD81EGFP cells, uninfected

Structure (SMILES) | AC50 ([1]; read-out: AC50) | viability at 48 h, 1 µM [2] | viability at 48 h, 3 µM [2] | further results
Cc1cccc(NC(=O)Cn2c(C)c(C#N)c3ccccc32)c1C [MLS000030212-01] | 5.96 µM | 99.9% | – | viability at 48 h [2]: 99.9%
Cc1cc(C)cc(N(CC(=O)NCc2ccc3c(c2)OCO3)C(=O)CCC(=O)Nc2ccccn2)c1 [MLS000032464-01] | 4.22 µM | – | – | viability at 66 h [2]: 96.4%
O=C(Nc1ccc(N2CCCCC2)c(Cl)c1)c1nnc[nH]1 [MLS000035389-01] | 4.73 µM | 101% | 99% | –
C=CCOC(=O)C(C#N)c1nc2ccccc2nc1N1CCC(C(=O)OCC)CC1 (centres unmarked) [MLS000036470-01] | 2.37 µM | 108% | 100% | –
COc1cccc(Cn2c(Oc3ccccc3)nc3c2c(=O)n(C)c(=O)n3C)c1 [MLS000038011-01] | 4.73 µM | 107% | 98% | –
CCOC(=O)c1cn(CC)c2cc(N3CCSCC3)c(F)cc2c1=O [MLS000038775-01] | 1.68 µM | 89% | 85% | –
Clc1ccc(-c2nnc(N3CCCC3)nn2)cc1 [MLS000038815-01] | 0.531 µM | – | – | viability at 66 h [2]: 102%
CCc1nc(Nc2ccc3nccnc3c2)c2oc3ccccc3c2n1 [MLS000041713-01] | 2.37 µM | 104% | 95% | –
CCN1CCCC1CNc1ncnc2c1[nH]c1ccc(Cl)cc12 (centres unmarked) [MLS000041736-01] | – | 98.5% | – | AC50 [1]: 2.99 µM; viability at 48 h [2]: 98.5%
Oc1ccc(C2NCc3ccccc3-n3cccc32)cc1Cl (centres unmarked) [MLS000047999-01] | 1.5 µM | 99% | 90% | –
CCC(C)c1ccc(O)c(NC(=O)c2cncc(Br)c2)c1 (centres unmarked) [MLS000062368-01] | 2.99 µM | 113% | 103% | –
Cc1cc(C(C)c2ccccc2)c(O)c(CN2CCOCC2)c1C (centres unmarked) [MLS000064176-01] | 2.99 µM | 108% | – | viability at 48 h [2]: 108%
COc1ccc(CNCc2cc3c(C(C)(C)C)nn(-c4ccccc4)c3[nH]c2=O)cc1 [MLS000067276-01] | 0.841 µM | 103% | 109% | –
CN(C)c1cc[n+](Cc2ccccc2)cc1 [MLS000070144-01] | 10.6 µM | – | – | viability at 66 h [2]: 96.5%
CC1(C)Cc2c(c(N3CCOCC3)nc3snc(Br)c23)CO1 [MLS000071231-01] | 0.299 µM | 87% | 86% | –
Oc1c2c(nc3ccc(Br)cc13)CCCC2 [MLS000074180-01] | 6.68 µM | 100% | 98% | –
CCCCN(C(=O)c1ccco1)c1nnc(-c2cc(OC)c(OC)c(OC)c2)s1 [MLS000075381-01] | 2.99 µM | – | – | viability at 66 h [2]: 104%
Cc1cc(Nc2ccc3ccccc3c2)n2ncnc2n1 [MLS000077665-01] | 0.596 µM | 88% | 86% | –
CCCCn1c2c(c(=N)c3c1CCC3)CCC2 [MLS000080126-01] | 8.41 µM | 111% | 80% | –
COc1ccc2c(c1)C1(Nc3ccccc3-c3nc4ccccc4n31)C(=O)N2 (centres unmarked) [MLS000080605-01] | 0.596 µM | 99% | 104% | –

Structure (SMILES) | AC50 ([1]; read-out: AC50) | viability at 48 h, 1 µM [2] | viability at 48 h, 3 µM [2] | further results
CCCc1cc(=O)oc2c(C)c(O)c(CN3CCCCC3)cc12 [MLS000081526-01] | 3.35 µM | – | – | viability at 66 h [2]: 104%
Cc1c(O)c(CN2CCCC2)cc2c1oc(=O)c1ccccc12 [MLS000081529-01] | 2.66 µM | 108% | 102% | –
CC(C)(C)c1ccc(O)c(CN2CCN(c3ccccc3)CC2)c1 [MLS000084717-01] | – | – | – | AC50 [1]: 1.5 µM; viability [2]: 98.2%
Cc1cc(N2CCN(C)CC2)nc2ccc(NC(=O)c3ccc(Br)o3)cc12 [MLS000086536-01] | 6.68 µM | 104% | 104% | –
COc1ccc(N2/C(=C/C(C)=O)NC(=O)c3c(C)cc(C)nc32)cc1 [MLS000088720-01] | 3.35 µM | – | – | viability at 66 h [2]: 103%
CCOC(=O)c1nnn(-c2nonc2-n2cccc2)c1CN1CCCCC1 [MLS000090434-01] | 7.5 µM | 102% | 100% | –
CCOC(=O)CC(=O)CSc1nc2ccccc2c(=O)n1-c1ccc(C(=O)N2CCOCC2)cc1 [MLS000095558-01] | 13.3 µM | 87% | 87% | –
CCCn1cc(SCC(=O)NCc2ccco2)c2ccccc21 [MLS000095681-01] | 8.41 µM | 90% | 87% | –
Cc1ccc(-n2c(C)cc(C(=O)OCC(=O)N(C)C3CCS(=O)(=O)C3)c2C)cc1 (centres unmarked) [MLS000098265-01] | 4.73 µM | – | – | viability at 66 h [2]: 101%
O=C1C2=C(Nc3ccccc3SC2c2ccco2)c2ccccc21 (centres unmarked) [MLS000108310-01] | 4.73 µM | 110% | 99% | –
Cc1c(C#N)c2ccccc2n1CCOc1ccccc1F [MLS000113080-01] | 1.68 µM | 100% | 97% | –
CC(C)Cc1cc(C(=O)Nc2cc(Br)ccc2O)no1 [MLS000116399-01] | 4.73 µM | 120% | 110% | –
Cc1cc(C)cc(Nc2cc(C)nc3nc(C)nn23)c1 [MLS000116612-01] | 5.31 µM | 112% | – | viability at 48 h [2]: 112%
Cc1cc(N2CCN(C3CCCCC3)CC2)nc2cccc(O)c12 [MLS000118317-01] | 5.31 µM | 104% | 105% | –
COc1ccc(CNCC(O)(c2ccc(Cl)cc2)c2ccc(Cl)cc2)cc1 [MLS000325709-01] | 1.5 µM | 98% | 96% | –
O=C(Nc1c(C(=O)c2ccccc2)oc2ccccc12)c1cc(-c2ccccc2O)n[nH]1 [MLS000331861-01] | 2.11 µM | 100% | 99% | –
COc1cccc(OC)c1C(=O)NC(S)=Nc1ccc2c(c1)C(=O)N(C)C2=O [MLS000331897-01] | 0.944 µM | – | – | viability at 66 h [2]: 103%
CCn1c(SCC(=O)NCCc2ccccc2)nc2sc3c(c2c1=O)CCN(C)C3 [MLS000332196-01] | 5.31 µM | 96% | 87% | –
COc1ccc(NC(C)C(=O)Nc2cc(C(F)(F)F)ccc2N2CCOCC2)c(OC)c1 (centres unmarked) [MLS000334848-01] | 0.841 µM | 100% | 91% | –
Cc1ccccc1NC(=O)c1cc(C(=O)c2cc(Cl)ccc2O)cn(-c2ccccc2C)c1=O [MLS000374594-01] | 0.376 µM | 98% | 93% | –

Structure (SMILES) | AC50 ([1]; read-out: AC50) | viability at 48 h, 1 µM [2] | viability at 48 h, 3 µM [2] | further results
Cc1cccc(NC2=C(NC(=O)c3ccccc3)C(=O)c3ccccc3C2=O)c1 [MLS000392330-01] | 0.944 µM | 98% | 95% | –
Cc1cccc(Cl)c1/N=C(\S)N1CCN(c2ccc([N+](=O)[O-])cn2)CC1 [MLS000833563-01] | – | 95% | 93% | –
OC(CNCCNc1ncccc1C(F)(F)F)Cn1ccc2ccccc21 (centres unmarked) [MLS000833573-01] | – | 106% | 96% | –
CCOC(=O)N1CCc2c(sc3nc4n(c(=O)c23)N=C(c2ccc(OC)cc2)CS4)C1 [MLS000859689-01] | – | 99% | 96% | –
O=C(C[n+]1cc(-c2ccccc2)n2c1CCC2)c1cccs1 [MLS001003812-01] | – | 94% | 86% | –
COc1ccc(C(=O)C[n+]2ccc(N(C)C)cc2)cc1 [MLS001044390-01] | – | – | – | viability at 66 h [2]: 100%
COc1ccc(CCn2c(=N)c(C(=O)NC3CCCCC3)cc3c(=O)n4ccccc4nc32)cc1 [MLS001146200-01] | – | 102% | 98% | –
Cc1cccc(NC(=O)c2cc(S(=O)(=O)N(C)c3ccc(F)cc3)ccc2Cl)n1 [MLS001160863-01] | – | 97% | 92% | –
CCOc1cc(CN2CCCC(N3CCN(c4ccc(F)cc4)CC3)C2)ccc1OC (centres unmarked) [MLS001162894-01] | – | 114% | 103% | –
Clc1cccc(CN2CCc3c([nH]c4ccccc34)C2)c1Cl [MLS001164092-01] | – | 104% | – | viability at 48 h [2]: 104%
C=C(C)CSc1nc2sc3c(c2c(=O)n1-c1ccc(OC)cc1)CCN(C)C3 [MLS001173660-01] | – | 106% | 105% | –
Cc1ccc2[nH]c(C(=O)Nc3ccc(F)cc3)cc2c1 [MLS001183414-01] | – | – | – | viability at 66 h [2]: 99.7%
Cc1ccc2nc3c(c(Nc4ccc(O)cc4)c2c1)CCC3 [MLS001196969-01] | – | 99% | 99% | –
COc1ccc2cc3cc(C(=O)NCCC(C)C)oc3nc2c1 [MLS001199461-01] | – | 101% | 101% | –
CCc1cc(C(=O)c2ccccc2)c(N)s1 [MLS001211275-01] | – | – | – | viability at 66 h [2]: 107%
COC(CSc1nc(N)c2c3c(sc2n1)CN(C)CC3)OC [MLS001215130-01] | – | – | – | viability at 66 h [2]: 97.5%
CCSc1nnc(SCC(=O)c2c(N)n(C)c(=O)n(C)c2=O)s1 [MLS002169255-01] | – | 93% | 88% | –
CN(C(=O)c1ccc(NC(=O)Cc2cccc(NC(=O)C3CCCN(C(=O)CCc4ccccc4)C3)c2)cc1)C1CCCC1 (centres unmarked) [MLS002402746-01] | – | 104% | – | viability at 48 h [2]: 104%
CCCCN(C)[S+](=O)([O-])c1ccc(C(=O)Nc2ccc(-c3nc4ccc(C)cc4s3)cc2)cc1 [NCGC00134689-01] | – | – | – | viability at 66 h [2]: 103%
COc1ccccc1NC(=O)Cn1c(C)ccc(N[S+](=O)([O-])c2ccccc2)c1=O [NCGC00430868-01] | – | – | – | viability at 66 h [2]: 109%

— publication PMC7822874, “Chemoprotective antimalarials identified through quantitative high-throughput screening of Plasmodium blood and liver stage parasites” (Scientific Reports, 2021)
